Results as given in patent publication US11697648B2, “Fused pyrimidine pyridinone compounds as JAK inhibitors” (THERAVANCE BIOPHARMA R&D IP, LLC, priority 2019, dated 2023).

The compounds below were run against JAK1 (Homo sapiens (Human), UniProt P23458) (assay: Biochemical JAK1 kinase assay (LanthaScreen)). Settings: not given.
Description: (§1) Assay 1: Biochemical JAK and Tyk2 Kinase Assays
(§2) A panel of four LanthaScreen JAK biochemical assays (JAK1, 2, 3 and Tyk2) were carried in a common kinase reaction buffer (50 mM HEPES, pH 7.5, 0.01% Brij-35, 10 mM MgCl2, and 1 mM EGTA). Recombinant GST-tagged JAK enzymes and a GFP-tagged STAT1 peptide substrate were obtained from Life Technologies.
(§3) Serially or discretely diluted compounds were pre-incubated with each of the four JAK enzymes and the substrate in white 384-well microplates (Corning) at ambient temperature for 1 h. ATP was subsequently added to initiate the kinase reactions in 10 μL total volume, with 1% DMSO. […] Kinase reactions were allowed to proceed for 1 hour at ambient temperature before a 10 μL preparation of EDTA (10 mM final concentration) and Tb-anti-pSTAT1 (pTyr701) antibody (Life Technologies, 2 nM final concentration) in TR-FRET dilution buffer (Life Technologies) was added. The plates were allowed to incubate at ambient temperature for 1 h before being read on the EnVision reader (Perkin Elmer). Emission ratio signals (520 nm/495 nm) were recorded and utilized to calculate the percent inhibition values based on DMSO and background controls.
(§4) For dose-response analysis, percent inhibition data were plotted vs. compound concentrations, and IC50 values were determined from a 4-parameter robust fit model with the Prism software (GraphPad Software). Results were expressed as pIC50 (negative logarithm of IC50) and subsequently converted to pKi (negative logarithm of dissociation constant, Ki) using the Cheng-Prusoff equation.

Chain of JAK1 (P23458 whole entry): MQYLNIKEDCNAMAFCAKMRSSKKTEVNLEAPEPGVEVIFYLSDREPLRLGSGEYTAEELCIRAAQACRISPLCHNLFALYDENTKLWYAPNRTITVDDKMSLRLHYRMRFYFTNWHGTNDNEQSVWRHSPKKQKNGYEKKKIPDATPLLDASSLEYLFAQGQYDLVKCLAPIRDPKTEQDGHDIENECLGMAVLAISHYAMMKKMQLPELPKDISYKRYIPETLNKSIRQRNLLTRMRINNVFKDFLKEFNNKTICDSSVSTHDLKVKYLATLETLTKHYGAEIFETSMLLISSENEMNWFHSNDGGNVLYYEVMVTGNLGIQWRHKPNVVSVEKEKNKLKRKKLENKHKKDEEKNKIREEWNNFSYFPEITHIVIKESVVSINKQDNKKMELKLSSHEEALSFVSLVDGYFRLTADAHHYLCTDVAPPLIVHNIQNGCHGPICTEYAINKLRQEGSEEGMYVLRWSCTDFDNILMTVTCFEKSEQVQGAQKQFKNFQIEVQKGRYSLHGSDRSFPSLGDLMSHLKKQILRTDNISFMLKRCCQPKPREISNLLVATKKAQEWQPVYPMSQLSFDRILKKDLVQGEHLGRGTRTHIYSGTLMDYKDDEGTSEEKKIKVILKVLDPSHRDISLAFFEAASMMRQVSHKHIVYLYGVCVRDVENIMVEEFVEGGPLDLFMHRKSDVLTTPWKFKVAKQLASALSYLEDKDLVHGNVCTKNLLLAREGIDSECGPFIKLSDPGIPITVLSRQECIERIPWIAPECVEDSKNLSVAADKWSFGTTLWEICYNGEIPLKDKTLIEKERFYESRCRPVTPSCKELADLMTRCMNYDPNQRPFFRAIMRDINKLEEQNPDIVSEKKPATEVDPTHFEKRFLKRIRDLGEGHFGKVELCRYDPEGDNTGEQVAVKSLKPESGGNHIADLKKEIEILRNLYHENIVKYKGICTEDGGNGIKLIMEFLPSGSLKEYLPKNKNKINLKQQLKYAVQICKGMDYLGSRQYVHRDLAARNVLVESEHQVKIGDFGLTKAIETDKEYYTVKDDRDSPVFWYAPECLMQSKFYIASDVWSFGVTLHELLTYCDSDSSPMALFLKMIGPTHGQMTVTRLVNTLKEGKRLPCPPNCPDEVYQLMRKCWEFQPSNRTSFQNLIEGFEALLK

Row | Structure (SMILES) | JAK 1 (pKi)
1 | C=CC(=O)N1CC(CCn2c(=O)ccc3cnc(Nc4cnn(-c5ccccc5)c4)nc32)C1 [Example 34] | E (E represents a pKi value of 7 or below (Ki of 100 nM or above))
2 | C=CC(=O)N1CCN(CCn2c(=O)ccc3cnc(Nc4ccc(N5CCN(C)CC5)nc4)nc32)CC1 [Example 37] | E (E represents a pKi value of 7 or below (Ki of 100 nM or above))
3 | C=CC(=O)N1CCN(CCn2c(=O)ccc3cnc(Nc4ccc(N5CCN(C)CC5)c(F)c4)nc32)CC1 [Example 39] | E (E represents a pKi value of 7 or below (Ki of 100 nM or above))
4 | C=CC(=O)N1CC(CCn2c(=O)ccc3cnc(Nc4ccc(N5CCN(C)CC5)cc4)nc32)C1 [Example 45] | E (E represents a pKi value of 7 or below (Ki of 100 nM or above))
5 | C=CC(=O)N1CC(CCn2c(=O)ccc3cnc(Nc4ccc(CN5CCN(C)CC5)cc4)nc32)C1 [Example 46] | E (E represents a pKi value of 7 or below (Ki of 100 nM or above))

The compounds below were run against JAK2 (Homo sapiens (Human), UniProt O60674) (assay: Biochemical JAK2 kinase assay (LanthaScreen)). Settings: not given.
Chain of JAK2 (O60674 whole entry): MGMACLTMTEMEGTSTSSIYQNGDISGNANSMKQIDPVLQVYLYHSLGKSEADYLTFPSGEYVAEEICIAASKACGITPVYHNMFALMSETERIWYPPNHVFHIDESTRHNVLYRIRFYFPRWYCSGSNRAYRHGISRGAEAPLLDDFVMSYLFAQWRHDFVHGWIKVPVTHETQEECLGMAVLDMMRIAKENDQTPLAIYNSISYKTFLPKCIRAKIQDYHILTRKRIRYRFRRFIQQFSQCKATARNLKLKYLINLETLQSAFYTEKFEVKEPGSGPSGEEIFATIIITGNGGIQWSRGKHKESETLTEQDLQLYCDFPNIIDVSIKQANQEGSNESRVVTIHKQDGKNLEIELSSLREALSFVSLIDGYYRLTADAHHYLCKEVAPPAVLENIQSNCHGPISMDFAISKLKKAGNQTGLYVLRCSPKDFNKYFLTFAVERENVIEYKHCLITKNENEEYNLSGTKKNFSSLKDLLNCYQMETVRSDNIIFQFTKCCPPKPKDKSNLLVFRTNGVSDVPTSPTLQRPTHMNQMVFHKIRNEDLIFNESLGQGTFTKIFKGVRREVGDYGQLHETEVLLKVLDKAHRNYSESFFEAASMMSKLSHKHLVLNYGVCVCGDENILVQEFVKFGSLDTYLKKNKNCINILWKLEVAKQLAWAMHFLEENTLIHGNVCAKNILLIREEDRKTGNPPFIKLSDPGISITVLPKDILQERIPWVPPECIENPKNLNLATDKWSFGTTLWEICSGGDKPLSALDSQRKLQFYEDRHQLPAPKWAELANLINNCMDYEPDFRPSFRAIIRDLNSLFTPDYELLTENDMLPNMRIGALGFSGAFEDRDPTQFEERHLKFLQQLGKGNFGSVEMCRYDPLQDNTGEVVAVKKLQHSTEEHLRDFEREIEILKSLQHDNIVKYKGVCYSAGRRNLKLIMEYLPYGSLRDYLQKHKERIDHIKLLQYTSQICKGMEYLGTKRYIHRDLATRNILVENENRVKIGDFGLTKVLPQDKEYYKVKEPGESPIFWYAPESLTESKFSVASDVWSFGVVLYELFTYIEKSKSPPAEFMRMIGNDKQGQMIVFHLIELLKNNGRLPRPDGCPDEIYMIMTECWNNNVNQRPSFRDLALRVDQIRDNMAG
Description: as §1, §2, §3, §4

Row | Structure (SMILES) | JAK 2 (pKi)
6 | C=CC(=O)N1CC(CCn2c(=O)ccc3cnc(Nc4cnn(-c5ccccc5)c4)nc32)C1 [Example 34] | E (E represents a pKi value of 7 or below (Ki of 100 nM or above))
7 | C=CC(=O)N1CCN(CCn2c(=O)ccc3cnc(Nc4ccc(N5CCN(C)CC5)nc4)nc32)CC1 [Example 37] | E (E represents a pKi value of 7 or below (Ki of 100 nM or above))
8 | C=CC(=O)N1CCN(CCn2c(=O)ccc3cnc(Nc4ccc(N5CCN(C)CC5)c(F)c4)nc32)CC1 [Example 39] | E (E represents a pKi value of 7 or below (Ki of 100 nM or above))
9 | C=CC(=O)N1CC(CCn2c(=O)ccc3cnc(Nc4ccc(N5CCN(C)CC5)cc4)nc32)C1 [Example 45] | E (E represents a pKi value of 7 or below (Ki of 100 nM or above))
10 | C=CC(=O)N1CC(CCn2c(=O)ccc3cnc(Nc4ccc(CN5CCN(C)CC5)cc4)nc32)C1 [Example 46] | E (E represents a pKi value of 7 or below (Ki of 100 nM or above))

The compounds below were run against JAK3 (Homo sapiens (Human), UniProt P52333) (assay: Biochemical JAK3 kinase assay (LanthaScreen)). Settings: not given.
Chain of JAK3 (P52333 whole entry): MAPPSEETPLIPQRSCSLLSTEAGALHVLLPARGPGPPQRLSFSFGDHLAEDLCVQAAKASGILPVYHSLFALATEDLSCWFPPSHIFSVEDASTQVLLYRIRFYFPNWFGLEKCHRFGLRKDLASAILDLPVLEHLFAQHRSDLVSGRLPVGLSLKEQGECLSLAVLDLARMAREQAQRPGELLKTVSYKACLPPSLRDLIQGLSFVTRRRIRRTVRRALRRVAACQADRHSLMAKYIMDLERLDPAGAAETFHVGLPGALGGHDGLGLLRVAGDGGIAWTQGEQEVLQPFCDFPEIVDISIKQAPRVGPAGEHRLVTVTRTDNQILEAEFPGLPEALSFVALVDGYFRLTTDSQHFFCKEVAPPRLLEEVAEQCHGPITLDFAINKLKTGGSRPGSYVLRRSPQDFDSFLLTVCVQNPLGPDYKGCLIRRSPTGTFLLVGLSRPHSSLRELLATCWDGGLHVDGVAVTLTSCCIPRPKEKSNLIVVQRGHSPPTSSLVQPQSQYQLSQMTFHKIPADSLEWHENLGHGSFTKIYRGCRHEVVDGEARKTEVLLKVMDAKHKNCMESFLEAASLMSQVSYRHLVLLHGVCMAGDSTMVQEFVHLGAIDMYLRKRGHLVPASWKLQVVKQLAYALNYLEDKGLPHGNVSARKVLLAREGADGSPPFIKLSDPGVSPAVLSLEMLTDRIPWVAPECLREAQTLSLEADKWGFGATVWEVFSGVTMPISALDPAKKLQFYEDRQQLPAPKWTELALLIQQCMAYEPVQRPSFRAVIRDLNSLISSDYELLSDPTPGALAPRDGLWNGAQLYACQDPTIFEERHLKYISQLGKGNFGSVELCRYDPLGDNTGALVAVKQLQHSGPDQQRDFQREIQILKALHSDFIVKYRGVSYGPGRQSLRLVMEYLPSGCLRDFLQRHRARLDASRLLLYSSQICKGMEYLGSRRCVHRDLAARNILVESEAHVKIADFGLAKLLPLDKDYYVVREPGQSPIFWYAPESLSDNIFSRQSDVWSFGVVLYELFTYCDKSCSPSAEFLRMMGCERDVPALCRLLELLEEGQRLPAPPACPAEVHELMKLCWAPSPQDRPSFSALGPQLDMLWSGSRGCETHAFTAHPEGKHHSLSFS
Description: as §1, §2, §3, §4

Row | Structure (SMILES) | JAK 3 (pKi)
11 | C=CC(=O)N1CC(CCn2c(=O)ccc3cnc(Nc4cnn(-c5ccccc5)c4)nc32)C1 [Example 34] | B (B represents pKi value between 9 and 10 (Ki between 1 nM and 0.1 nM))
12 | C=CC(=O)N1CCN(CCn2c(=O)ccc3cnc(Nc4ccc(N5CCN(C)CC5)nc4)nc32)CC1 [Example 37] | B (B represents pKi value between 9 and 10 (Ki between 1 nM and 0.1 nM))
13 | C=CC(=O)N1CCN(CCn2c(=O)ccc3cnc(Nc4ccc(N5CCN(C)CC5)c(F)c4)nc32)CC1 [Example 39] | B (B represents pKi value between 9 and 10 (Ki between 1 nM and 0.1 nM))
14 | C=CC(=O)N1CC(CCn2c(=O)ccc3cnc(Nc4ccc(N5CCN(C)CC5)cc4)nc32)C1 [Example 45] | B (B represents pKi value between 9 and 10 (Ki between 1 nM and 0.1 nM))
15 | C=CC(=O)N1CC(CCn2c(=O)ccc3cnc(Nc4ccc(CN5CCN(C)CC5)cc4)nc32)C1 [Example 46] | B (B represents pKi value between 9 and 10 (Ki between 1 nM and 0.1 nM))

Same assay, conditions: selectivity JAK3 over JAK1, difference of pKi

Row | Structure (SMILES) | JAK3 (pKi)-JAK1 (pKi)
16 | C=CC(=O)N1CC(CCn2c(=O)ccc3cnc(Nc4cnn(-c5ccccc5)c4)nc32)C1 [Example 34] | A (A represents a value of 3 or above)
17 | C=CC(=O)N1CCN(CCn2c(=O)ccc3cnc(Nc4ccc(N5CCN(C)CC5)nc4)nc32)CC1 [Example 37] | A (A represents a value of 3 or above)
18 | C=CC(=O)N1CCN(CCn2c(=O)ccc3cnc(Nc4ccc(N5CCN(C)CC5)c(F)c4)nc32)CC1 [Example 39] | A (A represents a value of 3 or above)
19 | C=CC(=O)N1CC(CCn2c(=O)ccc3cnc(Nc4ccc(N5CCN(C)CC5)cc4)nc32)C1 [Example 45] | A (A represents a value of 3 or above)
20 | C=CC(=O)N1CC(CCn2c(=O)ccc3cnc(Nc4ccc(CN5CCN(C)CC5)cc4)nc32)C1 [Example 46] | A (A represents a value of 3 or above)

The compounds below were run against Tyk2 (Homo sapiens (Human), UniProt P29597) (assay: Biochemical Tyk2 kinase assay (LanthaScreen)). Settings: not given.
Chain of Tyk2 (P29597 whole entry): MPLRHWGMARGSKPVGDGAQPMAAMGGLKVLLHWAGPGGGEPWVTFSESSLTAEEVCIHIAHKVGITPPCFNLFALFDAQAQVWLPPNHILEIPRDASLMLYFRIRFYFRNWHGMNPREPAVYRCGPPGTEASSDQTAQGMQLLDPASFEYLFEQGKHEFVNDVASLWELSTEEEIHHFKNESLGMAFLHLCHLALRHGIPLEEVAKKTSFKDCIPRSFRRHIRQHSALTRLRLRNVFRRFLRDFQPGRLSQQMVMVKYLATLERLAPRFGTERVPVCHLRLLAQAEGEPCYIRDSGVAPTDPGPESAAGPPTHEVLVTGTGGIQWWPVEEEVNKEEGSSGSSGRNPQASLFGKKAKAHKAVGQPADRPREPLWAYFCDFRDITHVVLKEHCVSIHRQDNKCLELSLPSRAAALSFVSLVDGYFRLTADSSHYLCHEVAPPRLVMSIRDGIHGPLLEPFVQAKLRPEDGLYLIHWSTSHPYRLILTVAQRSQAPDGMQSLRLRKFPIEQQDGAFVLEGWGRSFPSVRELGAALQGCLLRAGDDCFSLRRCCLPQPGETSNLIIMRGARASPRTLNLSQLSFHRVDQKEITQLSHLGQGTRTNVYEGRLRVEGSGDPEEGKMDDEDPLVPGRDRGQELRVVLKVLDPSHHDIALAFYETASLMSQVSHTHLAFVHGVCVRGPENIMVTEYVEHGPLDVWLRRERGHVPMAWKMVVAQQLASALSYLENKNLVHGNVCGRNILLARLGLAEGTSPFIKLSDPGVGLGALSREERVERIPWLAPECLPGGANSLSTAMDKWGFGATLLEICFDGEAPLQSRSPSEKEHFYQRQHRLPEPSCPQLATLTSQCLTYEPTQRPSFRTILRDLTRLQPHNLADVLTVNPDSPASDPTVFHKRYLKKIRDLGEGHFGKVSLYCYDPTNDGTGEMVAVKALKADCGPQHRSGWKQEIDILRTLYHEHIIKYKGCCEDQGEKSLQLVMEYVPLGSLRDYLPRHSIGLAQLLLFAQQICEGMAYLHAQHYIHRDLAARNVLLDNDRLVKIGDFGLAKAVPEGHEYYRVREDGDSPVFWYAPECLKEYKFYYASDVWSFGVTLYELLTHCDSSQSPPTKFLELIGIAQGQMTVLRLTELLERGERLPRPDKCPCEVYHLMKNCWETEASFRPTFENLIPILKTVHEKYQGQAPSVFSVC
Description: as §1, §2, §3, §4

Row | Structure (SMILES) | Tyk 2 (pKi)
21 | C=CC(=O)N1CC(CCn2c(=O)ccc3cnc(Nc4cnn(-c5ccccc5)c4)nc32)C1 [Example 34] | E (E represents a pKi value of 7 or below (Ki of 100 nM or above))
22 | C=CC(=O)N1CCN(CCn2c(=O)ccc3cnc(Nc4ccc(N5CCN(C)CC5)nc4)nc32)CC1 [Example 37] | E (E represents a pKi value of 7 or below (Ki of 100 nM or above))
23 | C=CC(=O)N1CCN(CCn2c(=O)ccc3cnc(Nc4ccc(N5CCN(C)CC5)c(F)c4)nc32)CC1 [Example 39] | E (E represents a pKi value of 7 or below (Ki of 100 nM or above))
24 | C=CC(=O)N1CC(CCn2c(=O)ccc3cnc(Nc4ccc(N5CCN(C)CC5)cc4)nc32)C1 [Example 45] | E (E represents a pKi value of 7 or below (Ki of 100 nM or above))
25 | C=CC(=O)N1CC(CCn2c(=O)ccc3cnc(Nc4ccc(CN5CCN(C)CC5)cc4)nc32)C1 [Example 46] | E (E represents a pKi value of 7 or below (Ki of 100 nM or above))

Each compound was assayed on IL-2 stimulated STAT5 phosphorylation in Tall-1 human T cell line (JAK3) (assay: Cellular JAK3 potency assay: inhibition of IL-2 stimulated pSTAT5 in Tall-1 T cells). Settings: IL-2 stimulated pSTAT5, Tall-1 T cells.
Type: cell-based
Description: Assay 2: Cellular JAK3 Potency Assay: Inhibition of IL-2 Stimulated pSTAT5 in Tall-1 T Cells
The potency of test compounds for inhibition of interleukin-2 (IL-2) stimulated STAT5 phosphorylation was measured in the Tall-1 human T cell line (DSMZ) using AlphaLisa. Because IL-2 signals through JAK3, this assay provides a measure of JAK3 cellular potency.
Phosphorylated STAT5 was measured via the AlphaLISA SureFire Ultra pSTAT5 (Tyr694/699) kit (PerkinElmer).
Human T cells from the Tall-1 cell line were cultured in a 37° C., 5% CO2 humidified incubator in RPMI (Life Technologies) supplemented with 15% Heat Inactivated Fetal Bovine Serum (FBS, Life Technologies), 2 mM Glutamax (Life Technologies), 25 mM HEPES (Life Technologies) and 1× Pen/Strep (Life Technologies). Compounds were serially diluted in DMSO and dispensed acoustically to empty wells. Assay media (phenol red-free DMEM (Life Technologies) supplemented with 10% FBS (ATCC)) was dispensed (4 μL/well) and plates shaken at 900 rpm for 10 inns. Cells were seeded at 45,000 cells/well in assay media (4 μL/well), and incubated at 37° C., 5% CO2 for 1 hour, followed by the addition of IL-2 (R&D Systems; final concentration 300 ng/ml) in pre-warmed assay media (4 μL) for 30 minutes. After cytokine stimulation, cells were lysed with 6 ul of 3× AlphaLisa Lysis Buffer (PerkinElmer) containing 1× PhosStop and Complete tablets (Roche). The lysate was shaken at 900 rpm for 10 minutes at room temperature (RT). Phosphorylated STAT5 was measured via the pSTAT5 AlphaLisa kit (PerkinElmer). Freshly prepared acceptor bead mixture was dispensed onto lysate (5 μL) under green filtered <100 lux light. Plates were shaken at 900 rpm for 2 mins, briefly spun down, and incubated for 2 hrs at RT in the dark. Donor beads were dispensed (5 μL) under green filtered <100 lux light. Plates were shaken at 900 rpm for 2 minutes, briefly spun down, and incubated overnight at RT in the dark. Luminescence was measured with excitation at 689 nm and emission at 570 nm using an EnVision plate reader (PerkinElmer) under green filtered <100 lux light.
To determine the inhibitory potency of test compounds in response to IL-2, the average emission intensity of beads bound to pSTAT5 was measured in a human T cell line. IC50 values were determined from analysis of the inhibition curves of signal intensity versus compound concentration. Data are expressed as pIC50 (negative decadic logarithm IC50) values (mean standard deviation).

Row | Structure (SMILES) | Tall-1 (pIC50)
26 | C=CC(=O)N1CC(CCn2c(=O)ccc3cnc(Nc4cnn(-c5ccccc5)c4)nc32)C1 [Example 34] | B (B represents a pC50 value between 6.7 (included) and 7.5 (IC50 between 200 nM and 32 nM))
27 | C=CC(=O)N1CCN(CCn2c(=O)ccc3cnc(Nc4ccc(N5CCN(C)CC5)nc4)nc32)CC1 [Example 37] | B (B represents a pC50 value between 6.7 (included) and 7.5 (IC50 between 200 nM and 32 nM))
28 | C=CC(=O)N1CCN(CCn2c(=O)ccc3cnc(Nc4ccc(N5CCN(C)CC5)c(F)c4)nc32)CC1 [Example 39] | B (B represents a pC50 value between 6.7 (included) and 7.5 (IC50 between 200 nM and 32 nM))
29 | C=CC(=O)N1CC(CCn2c(=O)ccc3cnc(Nc4ccc(N5CCN(C)CC5)cc4)nc32)C1 [Example 45] | B (B represents a pC50 value between 6.7 (included) and 7.5 (IC50 between 200 nM and 32 nM))
30 | C=CC(=O)N1CC(CCn2c(=O)ccc3cnc(Nc4ccc(CN5CCN(C)CC5)cc4)nc32)C1 [Example 46] | B (B represents a pC50 value between 6.7 (included) and 7.5 (IC50 between 200 nM and 32 nM))
